What was measured:
[1] = target: ABCC1 (Homo sapiens, UniProt P33527); experiment: daunorubicin assay, ABCC1-expressing H69AR cells; conditions: screening at 10 μM, inhibitor if 20% (+SEM) reached
From the text: (§1) To provide a detailed picture of the pharmacological profile of the indole derivatives, we investigated their modulatory nature on the most prominent ABC transporters ABCB1 (P-glycoprotein, P-gp), ABCC1, (multidrug resistance-associated protein 1, MRP1), and ABCG2 (breast cancer resistance protein, BCRP). Here, we conducted calcein AM (ABCB1),[2],[52]−[59] daunorubicin (ABCC1),[52],[58]−[60] and pheophorbide A (ABCG2)[2],[52]−[60] assays using ABCB1-expressing A2780/ADR, ABCC1-expressing H69AR, and ABCG2-expressing MDCK II BCRP cells, respectively.
(§2) The calcein AM (ABCB1),[2],[52]−[59] daunorubicin (ABCB1[52],[60] and ABCC1[52],[58]−[60]), and pheophorbide A (ABCG2)[2],[52]−[60] assays were conducted as reported earlier. […] The data was processed using GraphPad Prism version 8.4.0, and IC50 values were determined, applying three- or four-parameter logistic equations, whatever was statistically preferred.

[2] = system: A-549 cancer cells; experiment: MTT-based cell viability assay, A-549; conditions: Homo sapiens, A549, 72 h, read-out: A-549 cancer cell toxicity GI50 ± SEM
From the text: MCT1-expressing cells have an extraordinary energy demand and rely on pyruvate metabolism, through either lactate conversion or pyruvate consumption. Inhibition of MCT1 blocks lactate and pyruvate influx into cancer cells, which prevents their processing in the TCA cycle. Over time, the viability of cells exposed to an MCT1 inhibitor is impaired due to pyruvate deprivation, which is compensated by upregulating glucose metabolism—leading to an overconsumption of glucose. To confirm the antiproliferative nature of the indole derivatives, we investigated the compounds toward the MCT1-expressing cell lines A-549[14],[15] and MCF-7.[16] Cancer cell viability was assessed via a 3-(4,5-dimethylthiazol-2-yl)-2,5-diphenyltetrazolium bromide (MTT) assay, as reported earlier.[43]
To determine the growth inhibitory potential of compounds 17–32, […] of each compound either at concentrations between 1 and 100 μM (A-549 or MCF-7) or at 10 and 50 μM (NIH/3T3) was pipetted into colorless flat-bottom 96-well microplates. Thereafter, 180 μL of a cell suspension (5000 cells/well) of either A-549, MCF-7, or NIH/3T3 cells was added and subsequently kept for 72 h at 37 °C under a 5% CO2-humidified atmosphere. The cell viability as well as the GI50 values were determined as described above.[43]

[3] = system: A-549 cells; experiment: MTT-based cell viability assay with glucose supplementation; conditions: 25 and 50% of original glucose (4.5 g/L) every 12 h over 72 h
Description: The glucose deprivation analyses were conducted by adding 4.5 μL of glucose (final concentrations 25% and 50% of the original 4.5 g/L) to each well at an interval of 12 h over a period of 72 h to the 180 μL cell suspension of A-549 cells in a colorless flat-bottom 96-well microplate (SPL Life Sciences, Gyeonggi-do, Republic of Korea). Cell viability was determined as described above.

[4] = system: MCT1-expressing A-549 cells; experiment: MTT-based efficacy assay, 33 in combination with test compound, A-549; type: cell-based; conditions: for factor of sensitization of A-549 cells against 33: shift of concentration-effect curve of 33; for Increase Susceptibility toward 33 (Factor): supplement csv
Description: MCT1 inhibition anticipates challenging cancer cell energy supply and, thus, increases the efficacy of anticancer agents.
For this purpose, 10 μL of compounds 24 or 30 (50 nM, 100 nM, or 500 nM) was transferred onto a colorless flat-bottom 96-well microplate and complemented with 180 μL of a cell suspension containing either approximately 5,000 A-549 cells. A dilution series of compound 33 at concentrations between 50 nM and 50 μM was generated, and 10 μL of each concentration was transferred onto the plate. The observed effects of compounds 24 and 30 were compared to the effect of compound 33 alone on A-549. The plates were incubated for 72 h at 37 °C and a 5% CO2-humidified atmosphere, before subsequent processing with the regular MTT assay as described above.[43]

[5] = target: T1, ABCB1 (Homo sapiens, UniProt P08183); experiment: daunorubicin assay, ABCB1-expressing A2780/ADR cells; type: cell-based; conditions: A2780/ADR cells; read-out: ABCB1 daunorubicin IC50 ± SEM
T1 sequence (P08183 whole entry): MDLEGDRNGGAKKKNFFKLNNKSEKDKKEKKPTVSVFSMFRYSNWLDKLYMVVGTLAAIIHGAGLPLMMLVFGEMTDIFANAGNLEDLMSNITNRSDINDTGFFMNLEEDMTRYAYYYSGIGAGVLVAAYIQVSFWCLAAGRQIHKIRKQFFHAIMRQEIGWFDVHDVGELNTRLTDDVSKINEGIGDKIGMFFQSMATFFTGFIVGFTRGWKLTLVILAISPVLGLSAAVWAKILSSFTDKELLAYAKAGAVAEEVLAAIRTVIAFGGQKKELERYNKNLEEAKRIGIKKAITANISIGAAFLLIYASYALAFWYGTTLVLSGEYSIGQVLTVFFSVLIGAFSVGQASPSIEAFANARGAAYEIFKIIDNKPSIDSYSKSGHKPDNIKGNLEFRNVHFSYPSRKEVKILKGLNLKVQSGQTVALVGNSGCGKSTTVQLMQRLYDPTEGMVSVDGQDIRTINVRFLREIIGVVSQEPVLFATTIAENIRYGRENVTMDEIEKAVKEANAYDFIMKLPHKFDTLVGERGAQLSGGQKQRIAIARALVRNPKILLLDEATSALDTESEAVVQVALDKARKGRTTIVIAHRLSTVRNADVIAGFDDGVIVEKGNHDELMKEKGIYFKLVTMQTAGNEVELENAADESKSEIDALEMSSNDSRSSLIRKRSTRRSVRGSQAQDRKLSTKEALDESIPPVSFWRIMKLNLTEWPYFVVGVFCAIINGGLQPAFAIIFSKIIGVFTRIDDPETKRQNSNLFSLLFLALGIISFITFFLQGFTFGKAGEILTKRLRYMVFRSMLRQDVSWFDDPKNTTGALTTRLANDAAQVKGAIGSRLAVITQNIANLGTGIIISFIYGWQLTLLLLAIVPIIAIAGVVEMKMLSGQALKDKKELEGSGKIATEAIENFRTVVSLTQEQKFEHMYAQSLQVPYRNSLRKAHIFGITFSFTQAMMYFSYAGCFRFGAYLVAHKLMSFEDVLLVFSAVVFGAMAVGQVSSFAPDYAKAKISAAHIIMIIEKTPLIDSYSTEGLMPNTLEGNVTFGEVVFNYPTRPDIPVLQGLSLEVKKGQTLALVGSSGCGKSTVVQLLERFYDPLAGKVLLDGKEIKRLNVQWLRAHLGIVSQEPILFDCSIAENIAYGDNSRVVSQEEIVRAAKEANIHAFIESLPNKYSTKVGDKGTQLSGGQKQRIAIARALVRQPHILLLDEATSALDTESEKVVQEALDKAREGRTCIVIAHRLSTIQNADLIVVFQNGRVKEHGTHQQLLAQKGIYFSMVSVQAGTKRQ

[6] = target: ABCB1 (P-glycoprotein, P-gp) (Homo sapiens, UniProt P08183); experiment: as above; type: cell-based; conditions: human, ABCB1-expressing A2780/ADR cells, probe daunorubicin (3 μM final); relative to reference inhibitor 34 = 100%; read-out: maximal inhibition (Imax), ABCB1 daunorubicin
[7] = target: T1, ABCB1; experiment: calcein AM assay, ABCB1-expressing A2780/ADR cells; conditions: for IC50: read-out: ABCB1 calcein AM IC50 ± SEM, A2780/ADR cells, 22, 23 constrained to reference inhibitor 34; for ABCB1 inhibition: screening at 10 μM, inhibitor if 20% (+SEM) reached
From the text: as §1, §2

[8] = system: A-549 cells; experiment: PI/Annexin V-FITC apoptosis assay; type: cell-based; conditions: 5 μM
From the text: As compound 24 increased the sub-G1 cell cycle fraction of A-549 cells, we investigated its capability to induce apoptosis in a PI/Annexin V-FITC staining assay, as reported earlier.[44],[46]−[51] In short, cells that were stained with PI only were considered necrotic cells (Q1), while cells stained with both PI and Annexin V were late apoptotic (Q2), and cells stained with Annexin V only were early apoptotic (Q4). Cells negative on both PI and Annexin V were considered living cells (Q3).
A PI/Annexin V-FITC double staining method was used to carry out a flow cytometry-based apoptosis assay, as reported earlier.[44],[46]−[51] For this purpose, a PI/Annexin V-FITC apoptosis detection kit (BD Biosciences, Franklin Lakes, NJ) was used following the manufacturer’s instructions. A-549 cells were seeded onto 6-well plates with a density of 500,000 cells/well and incubated for 24 h at 37 °C under a 5% CO2-humidified atmosphere. Subsequently, the cells were exposed to compound 24 (5 μM) followed by a further incubation period of 24 h at 37 °C under a 5% CO2-humidified atmosphere. The cells were trypsinized, washed with PBS, and resuspended in 1x binding buffer (1,000,000 cells/mL). One hundred microliters of test solution containing 100,000 cells treated with a mixture of PI (5 μL) and Annexin V-FTIC (5 μL) was incubated in the dark for 10–15 min at room temperature. Four hundred microliters of binding buffer was added, and the cells were resuspended again just before the flow cytometry analysis by using flow cytometry.

[9] = target: ABCB1 (P-gp) (Homo sapiens, UniProt P08183); experiment: daunorubicin assay, ABCB1-expressing A2780/ADR cells; type: cell-based; conditions: human, ABCB1-expressing A2780/ADR cells, probe daunorubicin (3 μM final); relative to reference inhibitor 34 = 100%; read-out: maximal inhibition (Imax), ABCB1 daunorubicin
Chain of ABCB1 (P-gp) (P08183 whole entry): as above

Chain of ABCC1 (P33527 whole entry): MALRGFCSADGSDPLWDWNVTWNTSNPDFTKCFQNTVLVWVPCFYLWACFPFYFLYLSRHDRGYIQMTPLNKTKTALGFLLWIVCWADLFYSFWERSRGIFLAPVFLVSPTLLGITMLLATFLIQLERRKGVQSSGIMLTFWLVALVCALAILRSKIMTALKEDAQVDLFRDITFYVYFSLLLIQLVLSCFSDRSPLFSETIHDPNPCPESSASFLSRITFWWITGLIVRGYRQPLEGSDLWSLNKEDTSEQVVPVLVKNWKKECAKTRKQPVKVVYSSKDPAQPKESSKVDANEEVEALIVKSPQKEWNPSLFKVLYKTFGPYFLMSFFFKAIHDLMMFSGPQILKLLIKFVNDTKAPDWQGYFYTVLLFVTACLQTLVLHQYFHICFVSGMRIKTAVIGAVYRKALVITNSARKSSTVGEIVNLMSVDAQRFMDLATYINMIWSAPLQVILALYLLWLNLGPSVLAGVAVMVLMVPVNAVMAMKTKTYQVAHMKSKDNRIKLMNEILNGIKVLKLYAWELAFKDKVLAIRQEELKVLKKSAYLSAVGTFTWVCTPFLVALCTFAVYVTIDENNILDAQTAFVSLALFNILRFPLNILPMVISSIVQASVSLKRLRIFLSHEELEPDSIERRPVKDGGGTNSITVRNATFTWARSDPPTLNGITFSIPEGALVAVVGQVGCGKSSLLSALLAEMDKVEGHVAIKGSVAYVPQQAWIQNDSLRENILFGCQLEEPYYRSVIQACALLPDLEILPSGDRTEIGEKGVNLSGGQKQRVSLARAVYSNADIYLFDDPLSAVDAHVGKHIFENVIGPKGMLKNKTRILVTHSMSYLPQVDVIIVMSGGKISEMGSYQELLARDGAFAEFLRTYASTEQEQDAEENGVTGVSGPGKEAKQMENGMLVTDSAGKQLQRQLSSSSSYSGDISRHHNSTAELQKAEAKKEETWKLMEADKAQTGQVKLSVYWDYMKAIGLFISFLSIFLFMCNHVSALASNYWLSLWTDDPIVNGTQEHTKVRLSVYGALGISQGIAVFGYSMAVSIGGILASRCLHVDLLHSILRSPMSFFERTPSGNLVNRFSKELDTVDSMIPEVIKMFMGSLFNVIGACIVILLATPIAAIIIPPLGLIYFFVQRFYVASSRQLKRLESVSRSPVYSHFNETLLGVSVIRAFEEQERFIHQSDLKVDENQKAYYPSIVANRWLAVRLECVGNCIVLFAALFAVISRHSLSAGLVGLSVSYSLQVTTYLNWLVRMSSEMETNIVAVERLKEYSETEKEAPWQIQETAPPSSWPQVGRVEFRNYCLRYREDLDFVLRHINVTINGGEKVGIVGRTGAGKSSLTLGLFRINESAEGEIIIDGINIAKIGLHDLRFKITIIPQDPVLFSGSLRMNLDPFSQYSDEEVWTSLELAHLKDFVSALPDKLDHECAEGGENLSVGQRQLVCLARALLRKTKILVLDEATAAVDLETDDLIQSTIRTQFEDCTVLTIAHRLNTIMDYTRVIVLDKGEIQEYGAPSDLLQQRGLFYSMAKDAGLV

Row | SMILES | ABCC1 inhibition [1] | GI50 [2] [nM] | effect of glucose supplementation on cell toxicity [3] | factor of sensitization of A-549 cells against 33 [4] | Increase Susceptibility toward 33 (Factor) [4] | IC50 [5] [nM] | inhibition at 180 min [6] [%] | IC50 [7] [nM] | ABCB1 inhibition [7] | factor of increase of total apoptotic cells vs untreated [8] | Q1 necrotic cells (PI only) ([8]; 24 h) [%] | Q2 late apoptotic cells (PI and Annexin V) ([8]; 24 h) [%] | Q3 living cells ([8]; 24 h) [%] | Q4 early apoptotic cells (Annexin V only) ([8]; 24 h) [%] | percentage of total apoptotic cells ([8]; 24 h, untreated 0.51%) [%] | inhibition at 180 min [9] [%]
1 | COC(=O)/C(C#N)=C/c1cn(CC(=O)Nc2ccc(C)cn2)c2ccccc12 [Compound 30, Methyl-2-cyano-3-(1-(2-((5-methylpyridin-2-yl)amino)-2-oxoethyl)-1H-indol-3-yl) Acrylate] | X (Compounds were considered as inhibitors if they reached 20% (+SEM) inhibition compared to the reference inhibitors 33–35; X = fulfilled) | 19300 ± 300 | supplementation of glucose prevents cell toxicity | 2.6 | 2.6 | 2770 ± 20 | 93.3 | 1510 ± 80 | X (Compounds were considered as inhibitors if they reached 20% (+SEM) inhibition compared to the reference inhibitors 33–35; X = fulfilled) |  |  |  |  |  |  | 
2 | COC(=O)/C(C#N)=C/c1cn(CC(=O)Nc2ccc(OC)cc2)c2ccccc12 [Compound 24, Methyl-2-cyano-3-(1-(2-((4-methoxyphenyl)amino)-2-oxoethyl)-1H-indol-3-yl) Acrylate] | X (Compounds were considered as inhibitors if they reached 20% (+SEM) inhibition compared to the reference inhibitors 33–35; X = fulfilled) | 20000 ± 600 | supplementation of glucose prevents cell toxicity | 2.5 | 2.5 | 1490 ± 50 |  | 983 ± 135 | X (Compounds were considered as inhibitors if they reached 20% (+SEM) inhibition compared to the reference inhibitors 33–35; X = fulfilled) | 13 | 10.6 | 5.08 | 82.7 | 1.60 | 6.68 | 84
